72 compounds from patent EP1247803A2, “Indolinone compounds suitable for modulation of protein kinases” (Sugen, Inc., priority 1996, dated 1998) can be followed below.

T1 sequence (P35918 20-1345): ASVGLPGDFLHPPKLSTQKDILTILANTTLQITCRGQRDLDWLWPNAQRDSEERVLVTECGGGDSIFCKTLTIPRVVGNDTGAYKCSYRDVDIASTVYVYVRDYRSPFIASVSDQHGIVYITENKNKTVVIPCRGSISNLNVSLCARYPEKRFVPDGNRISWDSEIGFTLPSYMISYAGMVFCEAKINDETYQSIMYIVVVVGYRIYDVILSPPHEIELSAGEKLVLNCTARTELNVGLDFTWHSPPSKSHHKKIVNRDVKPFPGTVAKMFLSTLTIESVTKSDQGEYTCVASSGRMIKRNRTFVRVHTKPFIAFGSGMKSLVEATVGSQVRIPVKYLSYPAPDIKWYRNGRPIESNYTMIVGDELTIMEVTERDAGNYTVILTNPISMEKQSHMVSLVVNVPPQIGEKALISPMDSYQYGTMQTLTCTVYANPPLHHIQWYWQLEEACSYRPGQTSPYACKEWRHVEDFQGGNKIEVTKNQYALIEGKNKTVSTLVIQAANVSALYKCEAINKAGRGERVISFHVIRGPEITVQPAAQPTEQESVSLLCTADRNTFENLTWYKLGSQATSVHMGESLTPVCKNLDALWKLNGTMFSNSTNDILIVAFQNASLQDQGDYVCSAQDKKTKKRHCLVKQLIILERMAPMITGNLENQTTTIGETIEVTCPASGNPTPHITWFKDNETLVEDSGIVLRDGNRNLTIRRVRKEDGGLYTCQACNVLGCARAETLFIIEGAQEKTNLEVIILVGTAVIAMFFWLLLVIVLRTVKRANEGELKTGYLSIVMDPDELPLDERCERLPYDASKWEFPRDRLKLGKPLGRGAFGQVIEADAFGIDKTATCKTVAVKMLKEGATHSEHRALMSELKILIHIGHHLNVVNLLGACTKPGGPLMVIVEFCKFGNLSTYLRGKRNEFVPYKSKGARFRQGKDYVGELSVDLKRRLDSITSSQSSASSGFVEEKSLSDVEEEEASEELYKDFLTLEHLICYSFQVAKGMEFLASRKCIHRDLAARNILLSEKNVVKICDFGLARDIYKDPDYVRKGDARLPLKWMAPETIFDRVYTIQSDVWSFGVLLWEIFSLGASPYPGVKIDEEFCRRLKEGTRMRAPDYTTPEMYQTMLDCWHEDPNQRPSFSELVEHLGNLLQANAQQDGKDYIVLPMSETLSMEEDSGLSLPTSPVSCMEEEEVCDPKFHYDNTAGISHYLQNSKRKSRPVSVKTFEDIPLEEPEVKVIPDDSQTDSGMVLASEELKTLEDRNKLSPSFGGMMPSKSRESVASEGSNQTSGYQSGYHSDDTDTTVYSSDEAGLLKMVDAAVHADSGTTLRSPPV

This test concerns the target T1, FLK-1 receptor (Mus musculus, UniProt P35918).
T1 construct: expressed in transfected cells; host or cells: NIH3T3 C7#3
The experiment in a line: FLK-1 ELISA (kinase activity of the FLK-1 receptor in FLK-1/NIH3T3 cells, VEGF stimulated). Also noted: concentration or dose not given beside the values. The class given is cell-based. In short, it runs like this: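 NIH3T3 C7#3 cells expressing FLK-1 were seeded at 25.000 cells/well, serum-starved overnight in 0.1% FBS, then treated with compound for two hours at 37°C (final DMSO 0.5%) before VEGF stimulation. Receptor was captured on anti-rabbit IgG-coated ELISA plates bearing affinity-purified anti-FLK-1 antiserum.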
With `O=C1Nc2ccc(CCCl)cc2C1=Cc1c(O)cc(O)cc1O` [10722/G03], the “Fik Kinase %Inhibition” value is on record as 5.3%.
Then `O=C1Nc2ccc(I)cc2C1=Cc1ccc(O)cc1O` [10723/B08], with 1.0%.
Then `O=C1Nc2ccc(I)cc2C1=Cc1cccc(Br)c1` [10723/B10], with 5.8%; and `CC(=O)Oc1ccc(C=C2C(=O)Nc3ccc(I)cc32)cc1OC(C)=O` [10723/B05], with -15.4%.
As for `CC(C)(C)c1cc(C=C2C(=O)Nc3c(Br)cc(Br)cc32)c(O)c(C(C)(C)C)c1` [10723/A11], the figure is 42.9%.
With `CC(C)(C)c1cc(C=C2C(=O)Nc3ccc(I)cc32)c(O)c(C(C)(C)C)c1` [10723/B11], the “Fik Kinase %Inhibition” value was found to be 6.3%.
Then `Cc1c(Br)ccc2c1C(=Cc1ccc(O)c(O)c1O)C(=O)N2` [10723/C02], with 9.6%.
As for `COc1cccc(C=C2C(=O)Nc3ccc(Br)c(C)c32)c1O` [10723/C03], the figure is -3.1%; as for `O=C1Nc2ccc(S(=O)(=O)Nc3ccc(C(F)(F)F)cc3)cc2C1=Cc1ccc(Br)cc1` [10717/E08], 13.2%; as for `O=C1Nc2ccc(S(=O)(=O)Nc3ccc(C(F)(F)F)cc3)cc2C1=Cc1c[nH]c2ccccc12` [10717/E06], 7.5%.
Then `O=C1Nc2ccc(CCCl)cc2C1=Cc1ccccc1Br` [10723/G07], with 14.2%; and `Cc1cc(C=C2C(=O)Nc3ccc(I)cc32)ccc1O` [10723/B06], with 31.8%.
`CC(=O)Oc1ccc(C=C2C(=O)Nc3ccc(CCCl)cc32)cc1OC(C)=O` [10723/G05]: the “Fik Kinase %Inhibition” value is reported as -9.4%.
For the compound `O=C1Nc2ccc(CCCl)cc2C1=Cc1ccc(O)c(O)c1O` [10723/G02], the “Fik Kinase %Inhibition” value is reported as -1.6%.
For the compound `CCOc1ccccc1C=C1C(=O)Nc2ccc(S(=O)(=O)Nc3ccc(C(F)(F)F)cc3)cc21` [10717/E02], the “Fik Kinase %Inhibition” value worked out at 17.9%.
As for `CNS(=O)(=O)c1ccc2c(c1)C(=Cc1[nH]c(C)c(Br)c1Br)C(=O)N2` [10717/D11], the figure is 11.6%.
As to `CNS(=O)(=O)c1ccc2c(c1)C(=Cc1cc(C(C)(C)C)cc(C(C)(C)C)c1O)C(=O)N2` [10723/D11], the “Fik Kinase %Inhibition” value came out at 14.8%.
As for `O=C1Nc2ccc(CCCl)cc2C1=Cc1ccc([N+](=O)[O-])s1` [10722/G04], the figure is 7.2%; as for `O=C1Nc2ccc(CCCl)cc2C1=Cc1csc([N+](=O)[O-])c1` [10722/G09], 6.1%.
As for `O=C1Nc2ccc(CCCl)cc2C1=Cc1ccc(O)cc1O` [10723/G08], the figure is -22.9%; as for `CNS(=O)(=O)c1ccc2c(c1)C(=Cc1ccc(OC(C)=O)c(OC(C)=O)c1)C(=O)N2` [10723/D05], -6.1%; as for `O=C1Nc2ccc(CCCl)cc2C1=Cc1cc(O)c(O)c(Br)c1` [10723/G04], 8.7%.
Then `CC(C)(C)c1cc(C=C2C(=O)Nc3ccc(S(=O)(=O)Nc4ccc(C(F)(F)F)cc4)cc32)c(O)c(C(C)(C)C)c1` [10723/E11], with 8.9%; and `COc1cccc(C=C2C(=O)Nc3ccc(CCCl)cc32)c1O` [10723/G03], with 4.3%.
`COc1ccc(C=C2C(=O)Nc3ccc(CCCl)cc32)c(O)c1` [10723/G09]: the “Fik Kinase %Inhibition” value was -1.8%.
As for `COc1ccc(C=C2C(=O)Nc3c(Br)cc(Br)cc32)c(O)c1` [10723/A09], the figure is -1.0%.
As for `O=C1Nc2c(Br)cc(Br)cc2C1=Cc1cccc(Br)c1` [10723/A10], the figure is -3.1%; as for `Cc1cc(C=C2C(=O)Nc3c(Br)cc(Br)cc32)ccc1O` [10723/A06], 8.6%.
As for `CC(=O)Oc1ccc(C=C2C(=O)Nc3ccc(Br)c(C)c32)cc1OC(C)=O` [10723/C05], the figure is 5.6%; as for `COc1ccc(C=C2C(=O)Nc3ccc(I)cc32)c(O)c1` [10723/B09], 2.7%; as for `COc1cccc(C=C2C(=O)Nc3ccc(I)cc32)c1O` [10723/B03], 7.1%.
In the case of `CNS(=O)(=O)c1ccc2c(c1)C(=Cc1cccc(Br)c1)C(=O)N2` [10723/D10], the “Fik Kinase %Inhibition” value amounted to 6.5%.
Then `CNS(=O)(=O)c1ccc2c(c1)C(=Cc1ccc(O)cc1O)C(=O)N2` [10723/D08], with -4.5%.
With `O=C1Nc2c(Br)cc(Br)cc2C1=Cc1ccccc1Br` [10723/A07], the “Fik Kinase %Inhibition” value is -6.1%.
Then `CCCCN(CCCC)c1ccc(C=C2C(=O)Nc3ccc(CCCl)cc32)cc1` [10722/G10], with -1.7%; and `CNS(=O)(=O)c1ccc2c(c1)C(=Cc1cccc(OC)c1O)C(=O)N2` [10723/D03], with -14.7%.
As for `O=C1Nc2ccc(I)cc2C1=Cc1ccccc1Br` [10723/B07], the figure is 6.5%.
Then `O=C1Nc2ccc(CCCl)cc2C1=Cc1ccc(F)cc1F` [10722/G06], with 7.4%.
For `Cc1c(Br)ccc2c1C(=Cc1ccccc1Br)C(=O)N2` [10723/C07], the “Fik Kinase %Inhibition” value was determined as 20.9%.
With `O=C1Nc2ccc(I)cc2C1=Cc1ccc(O)c(O)c1O` [10723/B02], the “Fik Kinase %Inhibition” value is on record as -0.3%.
Then `O=C1Nc2c(Br)cc(Br)cc2C1=Cc1ccc(O)c(O)c1O` [10723/A02], with -5.5%; and `Cc1c(Br)ccc2c1C(=Cc1ccc(O)cc1O)C(=O)N2` [10723/C08], with -35.5%.
Turning to `Cc1cc(C=C2C(=O)Nc3ccc(Br)c(C)c32)ccc1O` [10723/C06], the “Fik Kinase %Inhibition” value is 17.8%.
As for `Cc1cc(C=C2C(=O)Nc3ccc(CCCl)cc32)cc(C)c1O` [10722/G07], the figure is 8.0%; as for `CNS(=O)(=O)c1ccc2c(c1)C(=Cc1ccc(O)c(C)c1)C(=O)N2` [10723/D06], 17.6%; as for `O=C1Nc2ccc(S(=O)(=O)N3CCOCC3)cc2C1=Cc1ccc(O)c(O)c1O` [10723/F02], 10.3%.
Take `O=C1Nc2ccc(S(=O)(=O)Nc3ccc(C(F)(F)F)cc3)cc2C1=Cc1cccs1` [10717/E03]: the “Fik Kinase %Inhibition” value came to 19.0%.
As for `Cn1cccc1C=C1C(=O)Nc2ccc(S(=O)(=O)Nc3ccc(C(F)(F)F)cc3)cc21` [10717/E04], the figure is 6.1%; as for `CNS(=O)(=O)c1ccc2c(c1)C(=Cc1cc(O)c(O)c(Br)c1)C(=O)N2` [10723/D04], 15.2%.
For `Cc1cc(C=C2C(=O)Nc3ccc(S(=O)(=O)Nc4ccc(C(F)(F)F)cc4)cc32)ccc1O` [10723/E06], the “Fik Kinase %Inhibition” value is 19.3%.
Then `O=C1Nc2ccc(S(=O)(=O)Nc3ccc(C(F)(F)F)cc3)cc2C1=Cc1cc(O)c(O)c(Br)c1` [10723/E04], with 30.7%; and `O=C1Nc2ccc(CCCl)cc2C1=Cc1ccc(C(=O)O)cc1` [10722/G05], with 10.8%; and `O=C1Nc2ccc(S(=O)(=O)Nc3ccc(C(F)(F)F)cc3)cc2C1=Cc1ccc(O)cc1O` [10723/E08], with -0.4%.
`CNS(=O)(=O)c1ccc2c(c1)C(=Cc1ccccc1Br)C(=O)N2` [10723/D07]: the “Fik Kinase %Inhibition” value is listed as 15.8%.
As for `CC(C)(C)c1cc(C=C2C(=O)Nc3ccc(CCCl)cc32)cc([N+](=O)[O-])c1O` [10722/G02], the figure is 15.1%; as for `CC(=O)Oc1ccc(C=C2C(=O)Nc3ccc(S(=O)(=O)N4CCOCC4)cc32)cc1OC(C)=O` [10723/F05], -6.4%; as for `Cc1c(Br)ccc2c1C(=Cc1cc(C(C)(C)C)cc(C(C)(C)C)c1O)C(=O)N2` [10723/C11], 9.5%.
Then `COc1cccc(C=C2C(=O)Nc3ccc(S(=O)(=O)N4CCOCC4)cc32)c1O` [10723/F03], with 4.4%; and `CC(=O)Oc1ccc(C=C2C(=O)Nc3c(Br)cc(Br)cc32)cc1OC(C)=O` [10723/A05], with -17.8%.
As for `Cc1cc(C=C2C(=O)Nc3ccc(CCCl)cc32)ccc1O` [10723/G06], the figure is 14.1%; as for `O=C1Nc2c(Br)cc(Br)cc2C1=Cc1cc(O)c(O)c(Br)c1` [10723/A04], 27.2%; as for `Cc1ccc(C=C2C(=O)Nc3ccc(S(=O)(=O)Nc4ccc(C(F)(F)F)cc4)cc32)s1` [10717/E07], 15.3%.
Consider `CNS(=O)(=O)c1ccc2c(c1)C(=Cc1ccc(O)c(O)c1O)C(=O)N2` [10723/D02], for which the “Fik Kinase %Inhibition” value turned out to be 2.0%.
`COc1cccc(C=C2C(=O)Nc3c(Br)cc(Br)cc32)c1O` [10723/A03]: the “Fik Kinase %Inhibition” value was 1.2%.
As to `CC(=O)Oc1ccc(C=C2C(=O)Nc3ccc(S(=O)(=O)Nc4ccc(C(F)(F)F)cc4)cc32)cc1OC(C)=O` [10723/E05], the “Fik Kinase %Inhibition” value is listed as 8.9%.
As for `COc1cccc(C=C2C(=O)Nc3ccc(S(=O)(=O)Nc4ccc(C(F)(F)F)cc4)cc32)c1O` [10723/E03], the figure is 8.7%.
Consider `CC(C)(C)c1cc(C=C2C(=O)Nc3ccc(CCCl)cc32)cc(Cl)c1O` [10722/G08], for which the “Fik Kinase %Inhibition” value turned out to be 8.2%.
Then `Cc1c(Br)ccc2c1C(=Cc1cccc(Br)c1)C(=O)N2` [10723/C10], with 9.5%; and `O=C1Nc2ccc(CCCl)cc2C1=Cc1ccc(C(F)(F)F)cc1` [10722/G11], with 0.6%; and `COc1ccc(C=C2C(=O)Nc3ccc(S(=O)(=O)Nc4ccc(C(F)(F)F)cc4)cc32)c(O)c1` [10723/E09], with 7.9%.
As for `O=C1Nc2ccc(S(=O)(=O)N3CCOCC3)cc2C1=Cc1cc(O)c(O)c(Br)c1` [10723/F04], the figure is 12.3%; as for `O=C1Nc2ccc(I)cc2C1=Cc1cc(O)c(O)c(Br)c1` [10723/B04], 18.7%.
